{
  "source": "patent US20020045638A1",
  "about": "“Method of treating estrogen receptor positive carcinoma” (priority 2000, published 2002)",
  "tested_on": "MCF-7 human breast cancer cells",
  "assay": "Inhibition of growth of MCF-7 breast cancer cells (MTT), with MacSynergy II synergy analysis;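 also: cells treated five or six days with single agents or combinations, growth read by MTT, synergy surface equals observed % inhibition minus Bliss additive prediction, values under 0% signal antagonism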",
  "conditions": "for inhibition at 0.1 µM / inhibition at 0.2 µM / inhibition at 0.4 µM / inhibition at 0.005 µM / inhibition at 0.01 µM / inhibition at 0.05 µM: Homo sapiens, MCF7, read-out: Percent Inhibition, Table E",
  "note": "Read-outs that look alike come from different tables or passages of the source.",
  "data": [
    {"smiles": "CO[C@H]1C[C@@H]2CC[C@@H](C)[C@@](O)(O2)C(=O)C(=O)N2CCCC[C@H]2C(=O)O[C@H]([C@H](C)C[C@@H]2CC[C@@H](OC(=O)C(C)(CO)CO)[C@H](OC)C2)CC(=O)[C@H](C)/C=C(\\C)[C@@H](O)[C@@H](OC)C(=O)[C@H](C)C[C@H](C)/C=C/C=C/C=C/1C", "note": "[CCI-779, rapamycin 42-ester with 3-hydroxy-2-(hydroxymethyl)-2-methylpropionic acid]", "values": [
      {"measurement": "inhibition at 0.1 µM", "setting": "CCI-779 5 nM + CCI-779 100 nM", "result": 51, "unit": "%"},
      {"measurement": "inhibition at 0.2 µM", "setting": "CCI-779 5 nM + CCI-779 200 nM", "result": 58.1, "unit": "%"},
      {"measurement": "inhibition at 0.4 µM", "setting": "CCI-779 5 nM + CCI-779 400 nM", "result": 64.1, "unit": "%"},
      {"measurement": "inhibition at 0.005 µM", "setting": "CCI-779 10 nM + CCI-779 5 nM", "result": 18.8, "unit": "%"},
      {"measurement": "inhibition at 0.01 µM", "setting": "CCI-779 10 nM + CCI-779 10 nM", "result": 23.5, "unit": "%"},
      {"measurement": "inhibition at 0.05 µM", "setting": "CCI-779 10 nM + CCI-779 50 nM", "result": 51.2, "unit": "%"},
      {"measurement": "inhibition at 0.1 µM", "setting": "CCI-779 10 nM + CCI-779 100 nM", "result": 54.8, "unit": "%"},
      {"measurement": "inhibition at 0.2 µM", "setting": "CCI-779 10 nM + CCI-779 200 nM", "result": 62.4, "unit": "%"},
      {"measurement": "inhibition at 0.4 µM", "setting": "CCI-779 10 nM + CCI-779 400 nM", "result": 65.2, "unit": "%"},
      {"measurement": "inhibition at 0.005 µM", "setting": "CCI-779 50 nM + CCI-779 5 nM", "result": 48.3, "unit": "%"},
      {"measurement": "inhibition at 0.01 µM", "setting": "CCI-779 50 nM + CCI-779 10 nM", "result": 46.9, "unit": "%"},
      {"measurement": "inhibition at 0.05 µM", "setting": "CCI-779 50 nM + CCI-779 50 nM", "result": 50.3, "unit": "%"},
      {"measurement": "inhibition at 0.1 µM", "setting": "CCI-779 50 nM + CCI-779 100 nM", "result": 54.6, "unit": "%"},
      {"measurement": "inhibition at 0.2 µM", "setting": "CCI-779 50 nM + CCI-779 200 nM", "result": 57.5, "unit": "%"},
      {"measurement": "inhibition at 0.4 µM", "setting": "CCI-779 50 nM + CCI-779 400 nM", "result": 60.2, "unit": "%"},
      {"measurement": "inhibition at 0.005 µM", "setting": "CCI-779 100 nM + CCI-779 5 nM", "result": 54.2, "unit": "%"},
      {"measurement": "inhibition at 0.01 µM", "setting": "CCI-779 100 nM + CCI-779 10 nM", "result": 52.9, "unit": "%"},
      {"measurement": "inhibition at 0.05 µM", "setting": "CCI-779 100 nM + CCI-779 50 nM", "result": 51, "unit": "%"},
      {"measurement": "inhibition at 0.1 µM", "setting": "CCI-779 100 nM + CCI-779 100 nM", "result": 55, "unit": "%"},
      {"measurement": "inhibition at 0.2 µM", "setting": "CCI-779 100 nM + CCI-779 200 nM", "result": 62.5, "unit": "%"},
      {"measurement": "inhibition at 0.4 µM", "setting": "CCI-779 100 nM + CCI-779 400 nM", "result": 66.8, "unit": "%"},
      {"measurement": "inhibition at 0.005 µM", "setting": "CCI-779 200 nM + CCI-779 5 nM", "result": 51.4, "unit": "%"},
      {"measurement": "inhibition at 0.01 µM", "setting": "CCI-779 200 nM + CCI-779 10 nM", "result": 57.1, "unit": "%"},
      {"measurement": "inhibition at 0.05 µM", "setting": "CCI-779 200 nM + CCI-779 50 nM", "result": 57.2, "unit": "%"},
      {"measurement": "inhibition at 0.1 µM", "setting": "CCI-779 200 nM + CCI-779 100 nM", "result": 59, "unit": "%"},
      {"measurement": "inhibition at 0.2 µM", "setting": "CCI-779 200 nM + CCI-779 200 nM", "result": 65.5, "unit": "%"},
      {"measurement": "inhibition at 0.4 µM", "setting": "CCI-779 200 nM + CCI-779 400 nM", "result": 66.8, "unit": "%"},
      {"measurement": "inhibition at 0.005 µM", "setting": "CCI-779 400 nM + CCI-779 5 nM", "result": 61.1, "unit": "%"},
      {"measurement": "inhibition at 0.01 µM", "setting": "CCI-779 400 nM + CCI-779 10 nM", "result": 61.1, "unit": "%"},
      {"measurement": "inhibition at 0.05 µM", "setting": "CCI-779 400 nM + CCI-779 50 nM", "result": 60, "unit": "%"},
      {"measurement": "inhibition at 0.1 µM", "setting": "CCI-779 400 nM + CCI-779 100 nM", "result": 62, "unit": "%"},
      {"measurement": "inhibition at 0.2 µM", "setting": "CCI-779 400 nM + CCI-779 200 nM", "result": 66.3, "unit": "%"},
      {"measurement": "inhibition at 0.4 µM", "setting": "CCI-779 400 nM + CCI-779 400 nM", "result": 69.7, "unit": "%"},
      {"measurement": "concentrations at which synergy was more pronounced", "setting": "MCF-7, ERA-923 in combination with CCI-779 (Table A)", "result": "300 to 400", "unit": "nM"},
      {"measurement": "Percent Inhibition", "setting": "Table A, CCI-779 5 nM, ERA-923 0 nM", "result": "−13.25", "unit": "%"},
      {"measurement": "Percent Inhibition", "setting": "Table A, CCI-779 10 nM, ERA-923 0 nM", "result": "−1.54", "unit": "%"},
      {"measurement": "Percent Inhibition", "setting": "Table A, CCI-779 50 nM, ERA-923 0 nM", "result": 26.68, "unit": "%"},
      {"measurement": "Percent Inhibition", "setting": "Table A, CCI-779 100 nM, ERA-923 0 nM", "result": 37.93, "unit": "%"},
      {"measurement": "Percent Inhibition", "setting": "Table A, CCI-779 200 nM, ERA-923 0 nM", "result": 34.99, "unit": "%"},
      {"measurement": "Percent Inhibition", "setting": "Table A, CCI-779 400 nM, ERA-923 0 nM", "result": 39.43, "unit": "%"},
      {"measurement": "Percent Inhibition", "setting": "Table E, CCI-779 5 nM + CCI-779 0 nM", "result": 0.59, "unit": "%"},
      {"measurement": "Percent Inhibition", "setting": "Table E, CCI-779 10 nM + CCI-779 0 nM", "result": 4.91, "unit": "%"},
      {"measurement": "Percent Inhibition", "setting": "Table E, CCI-779 50 nM + CCI-779 0 nM", "result": 36.55, "unit": "%"},
      {"measurement": "Percent Inhibition", "setting": "Table E, CCI-779 100 nM + CCI-779 0 nM", "result": 42.35, "unit": "%"},
      {"measurement": "Percent Inhibition", "setting": "Table E, CCI-779 200 nM + CCI-779 0 nM", "result": 45.87, "unit": "%"},
      {"measurement": "Percent Inhibition", "setting": "Table E, CCI-779 400 nM + CCI-779 0 nM", "result": 55.78, "unit": "%"}
    ]}
  ]
}
